Measurements published in ChEMBL document CHEMBL4368907 (J Med Chem, 2019).
Numbered stars: 1 amine (or outer) side, 2 acyl side, 3 side chain; on linkers, the order of the positions; unused ones are H or OH. Square brackets hold non-standard residues; d marks the D form. Side chains are listed from the residue outwards. Peptide text beside a SMILES is read from it. * marks the point of attachment. Phe(4-CH2SO3H) = N[C@@H](Cc1ccc(CS(=O)(=O)O)cc1)C(=O)O; Ala(indol-2-yl) = N[C@@H](Cc1cc2ccccc2[nH]1)C(=O)O; sY = N[C@@H](Cc1ccc(OS(=O)(=O)O)cc1)C(=O)O; C18 diacid = O=C(O)CCCCCCCCCCCCCCCCC(=O)*; C16 diacid = O=C(O)CCCCCCCCCCCCCCC(=O)*; γGlu = O=C(O)[C@H](CCC(=O)[*:2])N[*:1]; Glutaryl = O=C(CCCC(=O)[*:2])[*:1]; NMeF = CN[C@@H](Cc1ccccc1)C(=O)O; NMeD = CN[C@@H](CC(=O)O)C(=O)O; dNMeD = CN[C@H](CC(=O)O)C(=O)O; Nle = CCCC[C@H](N)C(=O)O; X1 = O=C(Cc1ccc(O)cc1)*; Dap = NC[C@H](N)C(=O)O; AEEA = NCCOCCOCC(=O)O

What was measured:
[1] = target: T1, Cholecystokinin receptor type A (Homo sapiens, UniProt P32238); experiment: Agonist activity at human CCK1R expressed in human 1321N1 cells assessed as IP1 accumulation after 1 hr by HTRF assay; type: functional, cell-based
T1 sequence (P32238 whole entry): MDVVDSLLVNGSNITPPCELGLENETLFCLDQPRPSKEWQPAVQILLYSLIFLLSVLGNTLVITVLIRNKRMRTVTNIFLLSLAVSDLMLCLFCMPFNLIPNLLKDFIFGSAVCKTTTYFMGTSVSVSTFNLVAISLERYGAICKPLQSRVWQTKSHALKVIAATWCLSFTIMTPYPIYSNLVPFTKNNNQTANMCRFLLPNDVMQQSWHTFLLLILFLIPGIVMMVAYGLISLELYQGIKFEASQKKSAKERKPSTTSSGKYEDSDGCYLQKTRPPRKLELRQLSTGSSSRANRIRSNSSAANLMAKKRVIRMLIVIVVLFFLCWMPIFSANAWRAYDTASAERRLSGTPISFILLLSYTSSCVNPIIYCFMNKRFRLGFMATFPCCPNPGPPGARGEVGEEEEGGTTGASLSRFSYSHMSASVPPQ

[2] = target: T1, Cholecystokinin receptor type A; experiment: Displacement of [125I]-CCK-8 from human CCK1R expressed in human 1321N1 cell membranes after 2 hrs by SPA assay
[3] = target: T2, Gastrin/cholecystokinin type B receptor (Homo sapiens, UniProt P32239); experiment: Displacement of [125I]-CCK-8 from human CCK2R expressed in human 1321N1 cell membranes after 2 hrs by SPA assay
T2 sequence (P32239 whole entry): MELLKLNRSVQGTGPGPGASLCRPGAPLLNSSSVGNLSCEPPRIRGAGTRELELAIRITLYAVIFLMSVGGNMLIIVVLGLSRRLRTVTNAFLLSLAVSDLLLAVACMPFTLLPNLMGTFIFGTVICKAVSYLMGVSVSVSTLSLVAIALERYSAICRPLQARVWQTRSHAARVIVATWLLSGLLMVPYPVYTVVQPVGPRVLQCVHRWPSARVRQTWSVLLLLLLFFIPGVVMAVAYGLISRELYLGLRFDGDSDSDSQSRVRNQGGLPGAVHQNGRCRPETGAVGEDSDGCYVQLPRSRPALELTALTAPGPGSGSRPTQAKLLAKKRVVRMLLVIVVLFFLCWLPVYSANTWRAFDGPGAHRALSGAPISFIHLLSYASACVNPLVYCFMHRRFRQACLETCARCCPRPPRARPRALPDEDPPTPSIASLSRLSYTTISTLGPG

[4] = target: T2, Gastrin/cholecystokinin type B receptor; experiment: Agonist activity at human CCK2R expressed in human 1321N1 cells assessed as IP1 accumulation after 1 hr by HTRF assay; type: functional, cell-based

CSCC[C@H](NC(=O)[C@H](Cc1c[nH]c2ccccc12)NC(=O)CNC(=O)[C@H](Cc1ccc(O)cc1)NC(=O)[C@H](C)NC(=O)[C@H](CCC(=O)O)NC(=O)[C@H](CCC(=O)O)NC(=O)[C@H](CCC(=O)O)NC(=O)[C@H](CCC(=O)O)NC(=O)[C@H](CCC(=O)O)NC(=O)[C@H](CC(C)C)NC(=O)[C@H](Cc1c[nH]c2ccccc12)NC(=O)[C@@H]1CCCN1C(=O)CNC(=O)[C@@H]1CCC(=O)N1)C(=O)N[C@@H](CC(=O)O)C(=O)N[C@@H](Cc1ccccc1)C(N)=O
EC50 [1]: 269 nM
IC50 [2]: 851 nM

CCCC[C@H](NC(=O)[C@H](Cc1c[nH]c2ccccc12)NC(=O)CNC(=O)[C@@H](CCCNC(=O)COCCOCCNC(=O)COCCOCCNC(=O)CC[C@H](NC(=O)CCCCCCCCCCCCCCCCC(=O)O)C(=O)O)NC(=O)Cc1ccc(O)cc1)C(=O)N(C)[C@H](CC(=O)O)C(=O)N(C)[C@@H](Cc1ccccc1)C(N)=O
pIC50 [3]: 5.08
pEC50 [1]: 10.22
pIC50 [2]: 9.3
pEC50 [4]: < 6

CCCC[C@H](NC(=O)[C@H](Cc1ccc(O)cc1)NC(=O)[C@H](CC(=O)O)NC(=O)COCCOCCNC(=O)COCCOCCNC(=O)CC[C@H](NC(=O)CCCCCCCCCCCCCCCCC(=O)O)C(=O)O)C(=O)NCC(=O)N[C@@H](Cc1c[nH]c2ccccc12)C(=O)N[C@@H](CCCCNC(=O)Nc1ccccc1C)C(=O)N[C@@H](CC(=O)O)C(=O)N(C)[C@@H](Cc1ccccc1)C(N)=O
IC50 [3]: 759 nM
EC50 [1]: 0.107 nM
IC50 [2]: 0.339 nM
EC50 [4]: 5.01 nM

CCCC[C@H](NC(=O)[C@H](Cc1c[nH]c2ccccc12)NC(=O)CNC(=O)[C@H](CC(C)C)NC(=O)[C@H](Cc1ccc(OS(=O)(=O)O)cc1)NC(=O)[C@H](CC(=O)O)NC(=O)COCCOCCNC(=O)COCCOCCNC(=O)CC[C@H](NC(=O)CCCCCCCCCCCCCCCCC(=O)O)C(=O)O)C(=O)N(C)[C@@H](CC(=O)O)C(=O)N[C@@H](Cc1ccccc1)C(N)=O
IC50 [3]: 245 nM
EC50 [4]: 1.55 nM

CCCC[C@H](NC(=O)[C@H](Cc1c[nH]c2ccccc12)NC(=O)CNC(=O)[C@H](CC(C)C)NC(=O)[C@H](Cc1ccc(OS(=O)(=O)O)cc1)NC(=O)[C@H](CC(=O)O)NC(=O)COCCOCCNC(=O)COCCOCCNC(=O)CC[C@H](NC(=O)CCCCCCCCCCCCCCCCC(=O)O)C(=O)O)C(=O)N(C)[C@H](CC(=O)O)C(=O)N[C@@H](Cc1ccccc1)C(N)=O
IC50 [3]: 5620 nM
EC50 [4]: 132 nM

CCCC[C@H](NC(=O)[C@H](Cc1c[nH]c2ccccc12)NC(=O)CNC(=O)[C@H](CC(C)C)NC(=O)[C@H](Cc1ccc(OS(=O)(=O)O)cc1)NC(=O)[C@H](CC(=O)O)NC(=O)COCCOCCNC(=O)COCCOCCNC(=O)CC[C@H](NC(=O)CCCCCCCCCCCCCCCCC(=O)O)C(=O)O)C(=O)N[C@@H](CC(=O)O)C(=O)N(C)[C@@H](Cc1ccccc1)C(N)=O
IC50 [3]: 0.288 nM
EC50 [1]: 0.115 nM
IC50 [2]: 0.0871 nM
EC50 [4]: 0.457 nM

CCCC[C@H](NC(=O)[C@H](Cc1c[nH]c2ccccc12)NC(=O)CNC(=O)[C@H](CC(C)C)NC(=O)[C@H](Cc1ccc(OS(=O)(=O)O)cc1)NC(=O)[C@H](CC(=O)O)NC(=O)COCCOCCNC(=O)COCCOCCNC(=O)CC[C@H](NC(=O)CCCCCCCCCCCCCCCCC(=O)O)C(=O)O)C(=O)N[C@@H](CC(=O)O)C(=O)N[C@@H](Cc1ccccc1)C(N)=O
IC50 [3]: 0.166 nM
EC50 [1]: 0.129 nM
IC50 [2]: 0.275 nM
EC50 [4]: 0.501 nM

CCCC[C@H](NC(=O)[C@H](Cc1c[nH]c2ccccc12)NC(=O)CNC(=O)[C@H](CC(C)C)NC(=O)[C@H](Cc1ccc(OS(=O)(=O)O)cc1)NC(=O)[C@H](CC(=O)O)NC(=O)COCCOCCNC(=O)COCCOCCNC(=O)CC[C@H](NC(=O)CCCCCCCCCCCCCCCCC(=O)O)C(=O)O)C(=O)N(C)[C@H](CC(=O)O)C(=O)N(C)[C@@H](Cc1ccccc1)C(N)=O
EC50 [1]: 0.363 nM
IC50 [2]: 0.0741 nM
EC50 [4]: 123 nM

CCCC[C@H](NC(=O)[C@H](Cc1cc2ccccc2[nH]1)NC(=O)CNC(=O)[C@H](CCCCNC(=O)COCCOCCNC(=O)COCCOCCNC(=O)CC[C@H](NC(=O)CCCCCCCCCCCCCCCCC(=O)O)C(=O)O)NC(=O)[C@H](Cc1ccc(OS(=O)(=O)O)cc1)NC(=O)[C@H](CC(=O)O)NC(C)=O)C(=O)N(C)[C@@H](CC(=O)O)C(=O)N(C)[C@@H](Cc1ccccc1)C(N)=O (Ac-D[sY]K([AEEA-AEEA-γGlu-C18 diacid])G[Ala(indol-2-yl)][Nle][NMeD][NMeF]-NH2)
pIC50 [3]: 6.24
pEC50 [1]: 9.61
pIC50 [2]: 10.19
pEC50 [4]: 6.5

CCCC[C@H](NC(=O)Cc1ccc(O)cc1)C(=O)NCC(=O)N[C@@H](Cc1c[nH]c2ccccc12)C(=O)N[C@@H](CCCC)C(=O)N(C)[C@@H](CC(=O)O)C(=O)N[C@@H](Cc1ccccc1)C(N)=O (X1-[Nle]GW[Nle][NMeD]F-NH2)
IC50 [3]: 3020 nM
EC50 [1]: 9.12 nM
IC50 [2]: 15.5 nM
EC50 [4]: 195 nM

CCCC[C@H](NC(=O)Cc1ccc(O)cc1)C(=O)NCC(=O)N[C@@H](Cc1c[nH]c2ccccc12)C(=O)N[C@@H](CCCC)C(=O)N(C)[C@@H](CC(=O)O)C(=O)N(C)[C@@H](Cc1ccccc1)C(N)=O (X1-[Nle]GW[Nle][NMeD][NMeF]-NH2)
IC50 [3]: > 10000 nM
EC50 [1]: 8.51 nM
IC50 [2]: 42.7 nM
EC50 [4]: > 1000 nM

CCCC[C@H](NC(=O)Cc1ccc(O)cc1)C(=O)NCC(=O)N[C@@H](Cc1c[nH]c2ccccc12)C(=O)N[C@@H](CCCC)C(=O)N(C)[C@H](CC(=O)O)C(=O)N[C@@H](Cc1ccccc1)C(N)=O (X1-[Nle]GW[Nle][dNMeD]F-NH2)
IC50 [3]: > 10000 nM
EC50 [1]: 1.55 nM
IC50 [2]: 7.08 nM
EC50 [4]: > 1000 nM

CCCC[C@H](NC(=O)[C@H](Cc1c[nH]c2ccccc12)NC(=O)CNC(=O)[C@H](CC(C)C)NC(=O)[C@H](Cc1ccc(CS(=O)(=O)O)cc1)NC(=O)[C@H](CC(=O)O)NC(=O)COCCOCCNC(=O)COCCOCCNC(=O)CC[C@H](NC(=O)CCCCCCCCCCCCCCC(=O)O)C(=O)O)C(=O)N(C)[C@H](CC(=O)O)C(=O)N(C)[C@@H](Cc1ccccc1)C(N)=O ({C16 diacid-γGlu-AEEA-AEEA}-D[Phe(4-CH2SO3H)]LGW[Nle][dNMeD][NMeF]-NH2)
EC50 [1]: 0.191 nM

CCCC[C@H](NC(=O)[C@H](Cc1c[nH]c2ccccc12)NC(=O)CNC(=O)[C@H](CC(C)C)NC(=O)[C@@H](NC(=O)[C@H](CC(=O)O)NC(=O)COCCOCCNC(=O)COCCOCCNC(=O)CC[C@H](NC(=O)CCCCCCCCCCCCCCCCC(=O)O)C(=O)O)[C@@H](C)CC)C(=O)N(C)[C@@H](CC(=O)O)C(=O)N(C)[C@@H](Cc1ccccc1)C(N)=O ({C18 diacid-γGlu-AEEA-AEEA}-DILGW[Nle][NMeD][NMeF]-NH2)
pIC50 [3]: < 5
pEC50 [1]: 9.41
pIC50 [2]: 8.37
pEC50 [4]: < 6

CCCC[C@H](NC(=O)[C@H](Cc1c[nH]c2ccccc12)NC(=O)CNC(=O)[C@H](CC(C)C)NC(=O)[C@H](Cc1c[nH]c2ccccc12)NC(=O)[C@H](CC(=O)O)NC(=O)COCCOCCNC(=O)COCCOCCNC(=O)CC[C@H](NC(=O)CCCCCCCCCCCCCCCCC(=O)O)C(=O)O)C(=O)N(C)[C@@H](CC(=O)O)C(=O)N(C)[C@@H](Cc1ccccc1)C(N)=O ({C18 diacid-γGlu-AEEA-AEEA}-DWLGW[Nle][NMeD][NMeF]-NH2)
pIC50 [3]: 5.13
pEC50 [1]: 9.67
pIC50 [2]: 8.57
pEC50 [4]: < 6

CCCC[C@H](NC(=O)[C@H](CNC(=O)CCCC(=O)O)NC(=O)[C@H](CC(=O)O)NC(=O)COCCOCCNC(=O)COCCOCCNC(=O)CC[C@H](NC(=O)CCCCCCCCCCCCCCCCC(=O)O)C(=O)O)C(=O)NCC(=O)N[C@@H](Cc1c[nH]c2ccccc12)C(=O)N[C@@H](CCCC)C(=O)N[C@@H](CC(=O)O)C(=O)N[C@@H](Cc1ccccc1)C(N)=O ({C18 diacid-γGlu-AEEA-AEEA}-D[Dap](Glutaryl)[Nle]GW[Nle]DF-NH2)
IC50 [3]: 5.75 nM
EC50 [1]: 229 nM
IC50 [2]: 832 nM
EC50 [4]: 0.38 nM

CC(C)C[C@H](NC(=O)[C@H](Cc1ccc(OS(=O)(=O)O)cc1)NC(=O)[C@H](CC(=O)O)NC(=O)COCCOCCNC(=O)COCCOCCNC(=O)CC[C@H](NC(=O)CCCCCCCCCCCCCCCCC(=O)O)C(=O)O)C(=O)NCC(=O)N[C@@H](Cc1c[nH]c2ccccc12)C(=O)N[C@@H](C)C(=O)N(C)[C@H](CC(=O)O)C(=O)N(C)[C@@H](Cc1ccccc1)C(N)=O ({C18 diacid-γGlu-AEEA-AEEA}-D[sY]LGWA[dNMeD][NMeF]-NH2)
EC50 [1]: 0.166 nM
IC50 [2]: 0.617 nM
